Data published in patent US8901305B2, “Aryl lactam kinase inhibitors” (Bristol-Myers Squibb Company, priority 2012, dated 2014).

What was measured:
[1] = test system: formalin paw test in mice; assay: formalin paw test (pain response); type: in vivo
Method: AAK1 homozygous (−/−) and their wild-type (+/+) littermates were tested using the formalin paw test in order to assess their acute and tonic nociceptive responses. For these tests, Automatic Nociception Analyzers (purchased from the Ozaki lab at University of California, San Diego) were used. A metal band was placed around the left hind paw of each mouse 30 minutes prior to testing. After the 30-minute acclimation period, 20 μl of 5% formalin is subcutaneously injected in the dorsal surface of the left hind paw. Mice were individually housed in cylindrical chambers for 45 minutes. Fresh 5% formalin solution was prepared by diluting formaldehyde (Formalde-fresh 20%, Fisher Scientific, Fair Lawn, N.J.) with distilled water. Investigatory compounds were administered 30 minutes prior to formalin injection.
A computer recorded flinches per minute, total flinches for phase I (acute phase=first 8 minutes), and total flinches for phase II (tonic phase=time between minutes 20-40) through an electromagnetic field. See Yaksh T L, Ozaki G, McCumber D, Rathbun M, Svensson C, Malkmus S, Yaksh M C. An automated flinch detecting system for use in the formalin nociceptive bioassay. J Appl Physiol., 2001; 90:2386-402.
The same test was used to confirm that the administration of an AAK1 inhibitor can also affect pain response.
A compound of the disclosure was tested in this assay at different doses. Gabapentin and pregabalin were used as positive controls. Results are shown below in Table 2, wherein the effect of gabapentin at 200 mg/kg is considered a 100% response, the % response for the other compounds is relative to the 200 mg/kg dose of gabapentin, “sc” means subcutaneous administration; “po” means oral administration.

[2] = target: T1, GST-Xa-hAAK1 (Homo sapiens, UniProt Q2M2I8); assay: AAK1 kinase assay; type: biochemical; conditions: ATP 22 μM, 3 hours at room temperature
T1 construct: made in house
Method in brief: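 Bacterially expressed GST-Xa-hAAK1 was combined with substrates and compounds (eleven concentrations) and incubated 3 h at room temperature, then stopped with EDTA. Fluorescent substrate and phosphorylated product were separated electrophoretically (Caliper LabChip), and IC50 values came from non-linear regression.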

[3] = target: T2, AAK1 (full length human) with AP2M1 in HEK293F cells (Homo sapiens, UniProt Q2M2I8); assay: HEK281 cell-based assay (phospho-mu2 Western blot in transfected HEK293F cells); conditions: 3 hours, inhibition of mu2 phosphorylation
T2 construct: expressed in transfected cells; host or cells: HEK293F
Method: HEK293F cells were cultured in media containing DMEM (Gibco, cat. #11965), 10% FBS (SAFC Biosciences, cat. #12103C), 1×GPS (glutamine, penicillin and streptomycin). On day one, cells were plated on a 10 cm dish so that they are ˜80% confluent at time of transfection. Roughly 12 million cells were in a 10 cm dish at time of transfection. On day two, each dish was transfected with 48 ug DNA and 144 ul Lipofectamine 2000 (Invitrogen, cat. #11668-019). The DNA was comprised of a mixture (per 10 cm dish) containing 3 ug AAK1/HA/pIRES (full length human, NCBI accession no. NP_055726.2), 45 μg Flag/AP2MI/pcDNA (full length human), and 1.5 ml OPTI-MEM. The Lipofectamine 2000 is made up of a mixture (per 10 cm dish) containing 144 μl Lipofectamine 2000 and 1.5 ml OPTI-MEM. Each mixture was transferred to individual 15 ml tubes and incubated at RT for 5 minutes, and then the two mixes were combined and incubated at RT for 20 minutes. Growth media was then aspirated from each 10 cm plate and replaced with 10 ml of DMEM+10% FBS (no GPS). Finally, 3 ml DNA/Lipofectamine mix was added to each 10 cm dish and mix gently followed by incubate of plate overnight at 37° C. and 5% CO2.
On day three, compounds were diluted in 100% DMSO at 1000× final concentration, followed by 3-fold serial dilutions for a total of 5 concentrations tested. Four compounds were tested per 10 cm dish. One ul of each compound dilution was then pipetted into a deep-well, 96-well plate, followed by addition of 500 μl DMEM+0.5% FBS into each well for a 2× final concentration of each compound. Cells were resuspended in a 10 cm dish by simple pipetting (HEK293 cells come off the plate that easy at this point) and then transferred to a 50 ml conical tube and pelleted by centrifugation at 1000 rpm for 5 min. Cell pellets were then resuspended in 2.75 ml DMEM+0.5% FBS per 10 cm dish and 100 μl of cell suspension transferred into each well of 96-well TC plate. Finally, 100 μl of 2× compound diluted in DMEM+0.5% FBS was then added into wells containing cell suspension for a 1× final concentration. Plates were then incubated at 37° C. and 5% CO2 for 3 hours followed by transferring of cell suspensions from each well into 12-tube PCR strips. The PCR strips were spun in a tip rack at 1000 rpm for 5 minutes to pellet cells and media was then removed by pipetting without disturbing the cell pellet.
To prepare for Western Blot analysis, cell pellets were resuspend in 40 ul 1×LDS-PAGE sample buffer (Invitrogen, cat. # NP0008)+2× Halt phosphatase and protease inhibitor cocktail (Thermo Scientific, cat. #1861284), followed by sonicating each with microtip sonicator set at 5 for 8-10 seconds. Five ul of 10× NuPage Sample Reducing Agent (with […]) was to each sample followed by heat denaturing at 70 C for 10 min on PCR machine. A total of 10 μl per sample was loaded into each lane of a 4-20% Tris-Glycine Criterion 26-well gel (Biorad, cat. #345-0034) for the phospho-mu2 blot and 10 μl per lane in a 4-12% Bis-Tris (+MES buffer) NuPAGE 26-well gel (Invitrogen, cat. # WG1403BX10) for the mu2 blot. For controls, 2 ng of phospho-mu2 or 20 ng mu2/Flag proteins were loaded in the last well of each gel. After SDS-PAGE, samples on each gel were transferred to PVDF membrane using an iBlot and membranes were blocked for one hour in TBST+5% milk, followed by wash 3× for 5-10 min with TBST. Criterion gels were probed with rabbit anti-phospho-mu2 (1:5000; a rabbit polyclonal antibody produced by New England Peptide and affinity purified at Lexicon) in TBST+5% BSA, whereas, NuPAGE gels were probed with mouse anti-Flag (1:500; Sigma, cat. # F1804) in TBST+5% milk, and these primary antibodies were incubated overnight at 4° C. on a rocker. […]

[4] = 50 mg/kg sc, relative to gabapentin 200 mg/kg = 100%

T1 sequence (Q2M2I8 whole entry): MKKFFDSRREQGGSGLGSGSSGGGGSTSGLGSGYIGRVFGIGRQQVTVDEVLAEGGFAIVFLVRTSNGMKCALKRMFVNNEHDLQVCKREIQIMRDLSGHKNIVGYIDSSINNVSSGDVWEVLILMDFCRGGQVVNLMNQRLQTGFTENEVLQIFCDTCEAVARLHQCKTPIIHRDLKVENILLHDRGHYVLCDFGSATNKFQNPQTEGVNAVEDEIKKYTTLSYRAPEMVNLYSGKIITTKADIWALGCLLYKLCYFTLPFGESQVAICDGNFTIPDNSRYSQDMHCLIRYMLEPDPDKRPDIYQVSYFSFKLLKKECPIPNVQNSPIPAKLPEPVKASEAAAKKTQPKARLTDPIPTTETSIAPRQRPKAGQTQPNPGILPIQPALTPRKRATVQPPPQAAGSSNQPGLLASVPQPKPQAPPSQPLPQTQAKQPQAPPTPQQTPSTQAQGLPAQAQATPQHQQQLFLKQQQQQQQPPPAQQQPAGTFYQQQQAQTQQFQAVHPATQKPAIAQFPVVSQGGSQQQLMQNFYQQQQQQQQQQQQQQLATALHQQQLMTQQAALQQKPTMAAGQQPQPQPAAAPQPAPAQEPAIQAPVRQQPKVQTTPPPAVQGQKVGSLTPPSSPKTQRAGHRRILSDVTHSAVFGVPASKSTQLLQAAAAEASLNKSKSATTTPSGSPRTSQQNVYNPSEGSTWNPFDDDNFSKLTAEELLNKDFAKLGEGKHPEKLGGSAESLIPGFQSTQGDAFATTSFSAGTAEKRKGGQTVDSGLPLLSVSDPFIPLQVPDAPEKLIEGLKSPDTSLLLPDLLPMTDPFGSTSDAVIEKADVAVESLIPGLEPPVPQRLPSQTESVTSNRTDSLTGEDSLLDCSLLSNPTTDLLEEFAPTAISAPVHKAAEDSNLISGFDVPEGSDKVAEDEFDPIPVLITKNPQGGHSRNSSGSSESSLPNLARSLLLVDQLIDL
T2 sequence (Q2M2I8 whole entry): as above

| Structure (SMILES) | Response [1, 4] [%] | IC50 [3] [nM] | IC50 [2] [nM] | also measured |
| --- | --- | --- | --- | --- |
| NCC1(CC(=O)O)CCCCC1 [Gabapentin, gabapentin] | 60 |  |  | Response ([1]; 200 mg/kg sc, considered a 100% response): 100% |
| CC(C)C[C@H](N)COc1ccc2c3ccncc3c(=O)n(C)c2c1 [Example 2, (S)-8-((2-amino-4-methylpentyl)oxy)-6-methylbenzo[c][2,7]naphthyridin-5(6H)-one] |  | 7 |  | IC50 ([2]; given as IC50 range): 1 to 10 nM |
| CC(C)C[C@H](N)COc1cc2c(cc1Br)c1ccncc1c(=O)n2C [Example 3, (S)-8-((2-amino-4-methylpentyl)oxy)-9-bromo-6-methylbenzo[c][2,7]naphthyridin-5(6H)-one] |  | 1.6 | 2.7 |  |
| CC(C)C[C@H](CN)CC(=O)O [Pregabalin, pregabalin] | 90 |  |  |  |
| Cc1nccc2c1c(=O)n(C)c1cc(OC[C@H](N)CC(C)C)c(C#N)cc21 [Example 78, (R)-8-(2-amino-4-methylpentyloxy)-4,6-dimethyl-5-oxo-5,6-dihydrobenzo[c][2,7]naphthyridine-9-carbonitrile] |  |  | 0.8 | IC50 ([3]; given as IC50 range): 1 to 10 nM |
